Results taken from paper PMC9510668 (Frontiers in Pharmacology, 2022).
Converted amounts (≈) assume the structure as drawn. Where two headings read alike, the source gives them in different places.

Columns and labels:
[1] = Equilibrium solubility in pH buffers and biorelevant media; format: physicochemical
Experimental: (§1) After incubation of 2 h, 1 ml aliquot of each sample was withdrawn from the tube. The samples were filtered using a 0.22 μm filter, the first 0.8 ml was discarded, and the remaining 0.2 ml was analyzed by the HPLC. The specific experiments containing different conditions are as follows: • i) Solubility testing in simulated fasted and fed media
Specifically, solubility media were prepared using different phosphate buffers. Media pH was adjusted to the required value (Table 1, target value) using KOH or H3PO4, which were equal to the pH value of gastrointestinal tract compartment in a fasted and fed state in humans, respectively. • ii) Biorelevant solubility

[2] = Effect of NaTC (bile salt) concentration on solubility; format: physicochemical; conditions: for solubility at 2 h: pH 5.5, read-out: Solubility at Fasted state
Experimental: as §1
In this experiment, a final pH of 5.5 was used, representing a mean front luminal pH at fed state.

BCRP1 [3] = assay: BCRP1 efflux transport; format: in vitro ADME; conditions: calculated from literature data, PAZ 5 μM, 60-120 min; ref Minocha et al., 2012
[4] = cited from earlier work; for Solubility: ref Herbrink et al., 2018; for LogP: 2022
Caco-2 cell = system: Caco-2 cell; parameters: method as in Food and Drug Administration, 2009; conditions: ref Food and Drug Administration, 2009; cited from earlier work
BCRP1 [5] = system: BCRP1; parameters: method as in Minocha et al., 2012; Boudou-Rouquette et al., 2016; conditions: in vitro; ref Minocha et al., 2012; Boudou-Rouquette et al., 2016; cited from earlier work
UGT1A1 = conditions: ref Xu et al., 2010; cited from earlier work
OCT2 = system: OCT2; parameters: method as in Sauzay et al., 2016; conditions: ref Sauzay et al., 2016; cited from earlier work
[6] = ref Food and Drug Administration, 2009, cited from earlier work
CYP2B6 = conditions: ref Food and Drug Administration, 2009; Yamada et al., 2020; cited from earlier work
CYP3A4 = conditions: 2020, cited from earlier work

solubility at 2 h ([1]; 37 °C, pH 1.3, fassgf or other biorelevant, thermodynamic from solid, FaSSGF-PH1.3, read-out: Solubility (mean ± SD) at fasted state): 436.1 ± 1 µg/mL (≈ 997 µM)
solubility at 2 h ([1]; 37 °C, pH 4.5, fassgf or other biorelevant, thermodynamic from solid, FEDGAS-PH4.5, read-out: Solubility (mean ± SD) at fed state): 147 ± 1.9 µg/mL (≈ 336 µM)
solubility at 2 h ([1]; 37 °C, pH 5.8, thermodynamic from solid, FeSSIF-V2-PH5.8, read-out: Solubility (mean ± SD) at fed state): 6.5 ± 1.3 µg/mL (≈ 14.9 µM)
solubility at 2 h ([1]; FEGGAS medium, 37 °C, fassgf or other biorelevant, thermodynamic from solid, fed state, used for food simulation, read-out: Mean value of the three solubility in the FEGGAS medium): 167 µg/mL (≈ 381 µM)
solubility at 2 h ([1]; pH 3, FEDGAS-PH3.0, read-out: Solubility (mean ± SD) at fed state): 322.7 ± 2.6 µg/mL (≈ 738 µM)
solubility at 2 h ([1]; pH 4.78, FaSSGF-PH4.78 (elevated gastric pH after esomeprazole), read-out: Solubility (mean ± SD) at fasted state): 46.1 ± 3.4 µg/mL (≈ 105 µM)
solubility at 2 h ([1]; pH 4.9, FEDGAS-PH4.9, read-out: Solubility (mean ± SD) at fed state): 40 ± 0.7 µg/mL (≈ 91.4 µM)
solubility at 2 h ([1]; pH 6.5, FaSSIF-V2-PH6.5, read-out: Solubility (mean ± SD) at fasted state): 0.63 ± 0.18 µg/mL (≈ 1.44 µM)
Solubility ([1]; pH ≥ 7.0): cannot even be detected
solubility at 2 h ([1]; phosphate buffer, 37 °C, pH 3, aqueous buffer, thermodynamic from solid, PH3.0, read-out: Solubility (mean ± SD) at fasted state): 391 ± 4.6 µg/mL (≈ 895 µM)
solubility at 2 h ([1]; phosphate buffer, 37 °C, pH 4.5, aqueous buffer, thermodynamic from solid, PH4.5, read-out: Solubility (mean ± SD) at fasted state): 68.3 ± 3.3 µg/mL (≈ 156 µM)
solubility at 2 h ([1]; phosphate buffer, 37 °C, pH 5, aqueous buffer, thermodynamic from solid, PH5.0, read-out: Solubility (mean ± SD) at fasted state): 24.2 ± 2.3 µg/mL (≈ 55.3 µM)
solubility at 2 h ([1]; phosphate buffer, 37 °C, pH 6, aqueous buffer, thermodynamic from solid, PH6.0, read-out: Solubility (mean ± SD) at fasted state): 7.6 ± 0.6 µg/mL (≈ 17.4 µM)
solubility at 2 h ([1]; phosphate buffer, 37 °C, pH 7, aqueous buffer, thermodynamic from solid, PH7.0, read-out: Solubility (mean ± SD) at fasted state): < 0.27 µg/mL
solubility at 2 h ([1]; phosphate buffer, 37 °C, pH 7.5, aqueous buffer, thermodynamic from solid, PH7.5, read-out: Solubility (mean ± SD) at fasted state): < 0.27 µg/mL
solubility at 2 h ([1]; phosphate buffer, pH 2, PH2.0, read-out: Solubility (mean ± SD) at fasted state): 263.9 ± 1.1 µg/mL (≈ 603 µM)
Increase of solubility with NaTC ([2]; 15 mM compared with 30 mM NaTC): about 4 fold
solubility at 2 h ([2]; biorelevant medium with sodium taurocholate (NaTC), 37 °C, pH 5.5, fassgf or other biorelevant, thermodynamic from solid, NaTC 3.75 mM): 1.51 µg/mL
solubility at 2 h ([2]; biorelevant medium with sodium taurocholate (NaTC), 37 °C, pH 5.5, fassgf or other biorelevant, thermodynamic from solid, NaTC 15 mM): 6.93 µg/mL
solubility at 2 h ([2]; biorelevant medium with sodium taurocholate (NaTC), 37 °C, pH 5.5, fassgf or other biorelevant, thermodynamic from solid, NaTC 30 mM): 27.9 µg/mL
solubility at 2 h ([2]; biorelevant medium with sodium taurocholate (NaTC), pH 5.5, NaTC 7.5 mM): 3.02 µg/mL
solubility at 2 h ([2]; medium with 0 mM NaTC, 37 °C, pH 5.5, fassgf or other biorelevant, thermodynamic from solid, NaTC 0 mM): 0.36 µg/mL
BCRP1 Vmax (BCRP1 [3]): 2.5 pmol/min
Structure (SMILES): Cc1ccc(Nc2nccc(N(C)c3ccc4c(C)n(C)nc4c3)n2)cc1S(N)(=O)=O [PAZ, pazopanib]
Solubility (mean ± SD) at fed state ([1]; PH7.0): N (Not detected (below the detection limit))
Solubility (mean ± SD) at fed state ([1]; PH7.5): N (Not detected (below the detection limit))
Solubility ([4]; above pH 4.0): practically insoluble
Solubility ([4]; pH = 1.0): very slight solubility
Biopharmaceutics Classification System (BCS) class ([4]; ref Evaluation, 1997): class II
LogP ([4]; ref Krens et al.): 3.33
LogP ([4]; ref PMDA): 3.65
Papp, Caco-2 cell permeability (Caco-2 cell): 16.9 ✕10^−6 cm⋅s^−1
Substrate for BCRP1 (BCRP1 [5]): moderate substrate
IC50 (UGT1A1): 1200 nM
Ki (OCT2): 3000 nM
Incidence of high blood pressure ([6]; Ctrough above 32 μg/ml): ~80%
Probability of ALT elevation ([6]; Ctrough above approximately 56 μg/ml): ~20%
Cmax threshold of clinical exposure-toxicity [6]: less than 56 μg/ml
Ctrough needed for sufficient clinical response [6]: above 15 μg/ml
Ctrough threshold of clinical exposure-toxicity [6]: < 32000 ng/mL
Inducer of CYP2B6 (CYP2B6): moderate inducer
Inducer of CYP3A4 (CYP3A4; ref Food and Drug Administration, 2009, Yamada et al.): moderate inducer
Emax CYP3A4, maximum inductive effect (CYP3A4; ref Yamada et al.): 2.43 µM
